From patent publication US10881699B2, “Cosmetic compositions” (Mary Kay Inc., priority 2014, dated 2021)

Columns and labels:
[1] = tested on: procollagen peptide production by human epidermal fibroblasts; test: Collagen stimulation assay, procollagen peptide ELISA; format: cell-based; settings: treated for 3 days
Excerpt: Collagen Stimulation Assay:
Collagen is an extracellular matrix protein critical for skin structure. Increased synthesis of collagen helps improve skin firmness and elasticity. This bioassay can be used to examine the effect of any one of the active ingredients, combination of ingredients, or compositions having said combinations disclosed in the specification on the production of procollagen peptide (a precursor to collagen) by human epidermal fibroblasts. The endpoint of this assay is a spectrophotometric measurement that reflects the presence of procollagen peptide and cellular viability. The assay employs the quantitative sandwich enzyme immunoassay technique whereby a monoclonal antibody specific for procollagen peptide was been pre-coated onto a microplate. […] Following a wash to remove any unbound antibody-enzyme reagent, a substrate solution was added to the wells and color develops in proportion to the amount of procollagen peptide bound in the initial step using a microplate reader for detection at 450 nm. The color development was stopped and the intensity of the color was measured. […] Following incubation, cell culture medium was collected and the amount of procollagen peptide secretion quantified using a sandwich enzyme linked immuno-sorbant assay (ELISA) from Takara (#MK101).

[2] = target: T1, MMP3 (Homo sapiens, UniProt P08254); test: Matrix metalloproteinase enzyme activity assay, MMP3; format: biochemical; settings: thiopeptide chromogenic substrate
T1 construct: purchased BioMol International AK-400
Excerpt: (§1) Matrix Metalloproteinase Enzyme Activity (MMP3; MMP9) Assay: An in vitro matrix metalloprotease (MMP) inhibition assay. MMPs are extracellular proteases that play a role in many normal and disease states by virtue of their broad substrate specificity. MMP3 substrates include collagens, fibronectins, and laminin; while MMP9 substrates include collagen VII, fibronectins and laminin. Using Colorimetric Drug Discovery kits from BioMol International for MMP3 (AK-400) and MMP-9 (AK-410), this assay is designed to measure protease activity of MMPs using a thiopeptide as a chromogenic substrate (Ac-PLG42-mercapto-4-methyl-pentanoylRG-OC2H5)5,6. The MMP cleavage site peptide bond is replaced by a thioester bond in the thiopeptide. Hydrolysis of this bond by an MMP produces a sulfhydryl group, which reacts with DTNB [5,5′-dithiobis(2-nitrobenzoic acid), Ellman's reagent] to form 2-nitro-5-thiobenzoic acid, which can be detected by its absorbance at 412 nm (c=13,600 M-1 cm-1 at pH 6.0 and above 7). The active ingredients, any one of the combination of ingredients, or compositions having said combinations disclosed in the specification can be assayed.

[3] = target: T2, MMP9 (Homo sapiens, UniProt P14780); test: Matrix metalloproteinase enzyme activity assay, MMP9; format: biochemical; settings: thiopeptide chromogenic substrate
T2 construct: purchased BioMol International AK-410
Excerpt: as §1

T2 sequence (P14780 107-444 limits assumed): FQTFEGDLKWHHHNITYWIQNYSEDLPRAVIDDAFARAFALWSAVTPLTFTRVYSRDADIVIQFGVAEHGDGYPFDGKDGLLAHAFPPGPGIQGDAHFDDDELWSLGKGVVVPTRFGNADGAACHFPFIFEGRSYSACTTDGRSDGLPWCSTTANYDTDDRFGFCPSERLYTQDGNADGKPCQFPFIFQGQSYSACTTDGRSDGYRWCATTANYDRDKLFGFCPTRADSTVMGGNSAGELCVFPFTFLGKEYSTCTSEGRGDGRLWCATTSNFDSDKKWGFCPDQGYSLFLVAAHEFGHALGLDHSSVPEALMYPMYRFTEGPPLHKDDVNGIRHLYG
T1 sequence (P08254 100-272 limits assumed): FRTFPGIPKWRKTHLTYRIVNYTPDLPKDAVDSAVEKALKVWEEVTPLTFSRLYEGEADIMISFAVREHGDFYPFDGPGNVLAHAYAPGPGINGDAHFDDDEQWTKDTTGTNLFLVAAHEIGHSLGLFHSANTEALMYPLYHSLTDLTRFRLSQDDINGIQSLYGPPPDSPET

| Compound | % Increase of Type I Collagen Production [1] [%] | % MMP3 Activity [2] [%] | % MMP9 Activity [3] [%] |
| --- | --- | --- | --- |
| CCCCCCCCC(CCCCCC)C(=O)OC[C@H](OC(=O)C(CCCCCC)CCCCCCCC)[C@H]1OC(=O)C(OC(=O)C(CCCCCC)CCCCCCCC)=C1OC(=O)C(CCCCCC)CCCCCCCC (stereo partly shown) [Tetrahexyldecyl ascorbate] | 50 | 38 | 11 |
| Trifluoroacetyl tripeptide-2 | 23 |  |  |
